Laboratory results reported in PMC8224697 (Marine Drugs, 2021).
Converted amounts (≈) assume the structure as drawn. “Also recorded” adds a separate entry of the source. Read-outs that look alike come from different tables or passages of the source.

What was measured:
C. albicans ATCC10231 = test: microbe, parasite or virus in culture; assay type: cell-based, Candida albicans
Excerpt: (§1) The ICL gene was cloned from C. albicans strain ATCC10231 genomic DNA. C. albicans SC5314 (ATCC MYA-2876) (wild type), MRC10 (Δicl) (ICL-deletion mutant), MRC11 (Δicl + ICL) (ICL-complemented mutant), […], ATCC18804, and ATCC11006 were used for the growth assay. The ICL-deletion mutant strains MRC10 and MRC11 were kindly provided by Prof. Michael C. Lorenz (The University of Texas Health Science Center at Houston). Each strain was subcultured in YNB broth (Difco Laboratories, Detroit, MI, USA) supplemented with 2% glucose at 28 °C. For the ICL inhibitor addition, isolated compounds dissolved in DMSO were added to a final solvent concentration of 0.5% in all growth assays.
(§2) The antifungal activity of secoemestrin C (1), dethiosecoemestrin (2), emestrin (3), and emestrin B (4) was evaluated against C. albicans strains (SC5314, ATCC10231, ATCC10259, ATCC11006, and ATCC18804) using a previously documented procedure. The growth of C. albicans was monitored in YNB broth with glucose or potassium acetate as the carbon source. The plates were incubated at 28 °C for 3 days. […] Amphotericin B, an antifungal agent, was applied as a positive control.

[1] = target: T1, recombinant ICL cloned from C. albicans ATCC10231 (Candida albicans, UniProt Q9P8Q7); test: ICL inhibition assay (glyoxylate phenylhydrazone formation, A324 nm); assay type: biochemical; details: for IC50: purified recombinant ICL, n = 3
T1 construct: made in house
T1 sequence (Q9P8Q7 whole entry): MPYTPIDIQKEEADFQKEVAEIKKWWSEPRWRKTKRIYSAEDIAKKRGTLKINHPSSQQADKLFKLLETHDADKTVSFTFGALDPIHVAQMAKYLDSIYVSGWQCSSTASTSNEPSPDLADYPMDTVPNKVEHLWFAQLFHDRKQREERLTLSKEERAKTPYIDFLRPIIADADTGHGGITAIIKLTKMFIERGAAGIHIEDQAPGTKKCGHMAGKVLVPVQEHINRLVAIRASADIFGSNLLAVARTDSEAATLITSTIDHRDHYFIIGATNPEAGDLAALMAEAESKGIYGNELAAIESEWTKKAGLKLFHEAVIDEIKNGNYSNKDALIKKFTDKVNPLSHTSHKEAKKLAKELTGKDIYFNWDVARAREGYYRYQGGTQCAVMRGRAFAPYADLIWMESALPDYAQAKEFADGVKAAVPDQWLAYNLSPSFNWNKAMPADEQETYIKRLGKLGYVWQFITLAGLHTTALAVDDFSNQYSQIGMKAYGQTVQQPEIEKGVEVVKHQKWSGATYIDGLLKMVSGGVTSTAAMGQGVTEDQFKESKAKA
Description: The preparation of recombinant ICL cloned from C. albicans ATCC10231 was performed as described previously. The inhibitory activities of secoemestrin C (1), dethiosecoemestrin (2), emestrin (3), and emestrin B (4) against purified recombinant ICL were evaluated according to a previously documented procedure. The production of ICL-catalyzed glyoxylate phenylhydrazone from phenylhydrazine and isocitrate was measured using a spectrophotometer at an absorbance wavelength of 324 nm.
The preparation of the recombinant ICL protein from C. albicans ATCC10231 was performed as described in a previous paper. We used the two synthetic primers IC-1 (5′-[…]-3′) and IC-2 (5′-[…] […]-3′) to perform a PCR amplification of ICL. The ICL inhibitory activity of the test compounds were evaluated according to a previously described method. The ICL-catalyzed formation of glyoxylate phenylhydrazone from isocitrate and phenylhydrazine substrates was measured using a spectrophotometer at an absorbance wavelength of 324 nm. The inhibitory activity of the test compound was calculated relative to that of the DMSO control (n = 3). We used 3-nitropropionate as a positive control.

C. albicans SC5314 = test: In vitro growth assay (MIC) in YNB broth; assay type: cell-based, Candida albicans; details: 28 °C
Excerpt: (§3) Following phagocytosis by macrophages, C. albicans undergoes a metabolic shift from glycolysis to the glyoxylate cycle, enabling cells to utilize C2 carbon sources. Therefore, we hypothesized that the ICL inhibitor reduces nutrient uptake capacity and impedes the survival of C. albicans within macrophages.
as §1, §2

C. albicans ATCC18804 = test: In vitro growth assay (MIC) in YNB broth; assay type: cell-based; details: Candida albicans, ATCC18804, 72 h, 28 °C
Excerpt: as §3, §1, §2

C. albicans ATCC11006 = test: In vitro growth assay (MIC) in YNB broth; assay type: cell-based; details: Candida albicans, ATCC11006, 72 h, 28 °C
Excerpt: as §3, §1, §2

C. albicans ATCC10259 = test: In vitro growth assay (MIC) in YNB broth; assay type: cell-based; details: Candida albicans, ATCC10259, 72 h, 28 °C
Excerpt: as §3, §1, §2

[2] = tested on: ICL mRNA expression in C. albicans; test: ICL mRNA expression by semi-quantitative RT-PCR; assay type: cell-based, Candida albicans; details: cells grown in 2% acetate with 16, 32, or 64 μg/mL compound; 4 h, 28 °C; SC5314 and MRC11
Description: (§4) Figure 3 Inhibitory activity of secoemestrin C (1) toward the growth and ICL mRNA expression of C. albicans. (a) C. albicans strains SC5314 (wild-type), MRC10 (Δicl), and MRC11 (Δicl + ICL) were cultured on YNB agar plates containing 2% glucose or 2% potassium acetate as a carbon source with or without 64 μg/mL secoemestrin C (1) for 2 days at 28 °C. (b) Strains were grown in YNB broth containing 2% glucose, collected by centrifugation, and transferred to YNB containing 2% glucose (Glu), 2% potassium acetate (Ace), or 2% Ace + secoemestrin C (1) (16, 32, or 64 μg/mL) and cultured for 4 h at 28 °C. ICL mRNA expression was analyzed by RT-PCR. Glyceraldehyde-3-phosphate dehydrogenase (GPDH), a housekeeping gene, was measured as a loading control.
We further investigated the effects of secoemestrin C (1) on ICL mRNA expression in C. albicans using a semi-quantitative reverse-transcription polymerase chain reaction (RT-PCR). […] GPDH expression was detected in all treatment conditions.
Growth phenotype and ICL expression analysis were performed using C. albicans strains SC5314 (wild type), MRC10 (Δicl), and MRC11 (Δicl + ICL) according to a previously described method. […] Semi-quantitative RT-PCR was conducted using ICL-specific primers: 5′-[…]-3′ (forward) and 5′-TAGATTCAGCTTCA GCCATCAAAGC-3′ (reverse). […]

[3] = tested on: C. albicans strains (SC5314, ATCC10231, ATCC10259, ATCC11006, and ATCC18804); test: In vitro growth assay (MIC), summary over the strain panel; assay type: cell-based; details: Candida albicans; C. albicans growing on acetate, over five strains
Description: as §3, §2

[4] = tested on: C. albicans strains SC5314 (wild type), MRC10 (Δicl), and MRC11 (Δicl + ICL); test: Growth phenotype analysis on YNB agar plates; assay type: cell-based, Candida albicans; details: 2 days, 28 °C
Description: To determine the effects of secoemestrin C (1) on C. albicans growth under C2–assimilating conditions, phenotypic analyses of ICL-deletion mutants were also performed using C. albicans strains SC5314 (wild type), MRC10 (Δicl), and MRC11 (Δicl + ICL). After pre-culture, each strain was streaked onto YNB agar plates supplemented with glucose or potassium acetate with or without 64 μg/mL secoemestrin C (1).
as §4, with “(b) Strains were grown in YNB broth containing 2% glucose, collected by centrifugation, and transferred to YNB containing 2% glucose (Glu), 2% potassium acetate (Ace), or 2% Ace + secoemestrin C (1) (16, 32, or 64 μg/mL) and cultured for 4 h at 28 °C.” left out
Growth phenotype and ICL expression analysis were performed using C. albicans strains SC5314 (wild type), MRC10 (Δicl), and MRC11 (Δicl + ICL) according to a previously described method. […] Semi-quantitative RT-PCR was conducted using ICL-specific primers: 5′-[…]-3′ (forward) and 5′-TAGATTCAGCTTCA GCCATCAAAGC-3′ (reverse). The expression of the housekeeping gene glyceraldehyde-3-phosphate dehydrogenase (GPDH) was measured as a loading control.

[5] = Candida albicans, ATCC10231, 72 h, ATCC10231, YNB with 2% glucose, 72 h, 28 °C, read-out: MIC
[6] = Candida albicans, ATCC10231, 72 h, ATCC10231, YNB with 2% potassium acetate, 72 h, 28 °C, read-out: MIC
[7] = Candida albicans, ATCC10231, Table 1: growth of C. albicans ATCC10231, read-out: MIC
[8] = Candida albicans, SC5314, 72 h, YNB with 2% glucose, read-out: MIC
[9] = Candida albicans, SC5314, 72 h, YNB with 2% potassium acetate, read-out: MIC
[10] = YNB with 2% glucose, read-out: MIC
[11] = YNB with 2% potassium acetate, read-out: MIC
[12] = Candida albicans, ATCC10231, Table 1: growth of C. albicans ATCC10231

SMILES	IC50 [1] [µM]	MIC (C. albicans ATCC10231; [5]) [µg/mL]	MIC (C. albicans ATCC10231; [6]) [µg/mL]	MIC (C. albicans ATCC10231; [7]) [µg/mL]	MIC (C. albicans SC5314; [8]) [µg/mL]	MIC (C. albicans SC5314; [9]) [µg/mL]	inhibitory activity toward ICL (in words) [1]	MIC (C. albicans ATCC10231; [12]) [µg/mL]	other results
O=C(O)CC[N+](=O)[O-] [3-Nitropropionate, 3-nitropropionate, reference compound]	21.8 ± 1.38	–	–	–	–	–	–	–	MIC (C. albicans ATCC10231; Table 1: growth of C. albicans ATCC10231): >128 µg/mL
C[C@@H]1[C@H](O)[C@@H](C)/C=C/C=C/C=C/C=C/C=C/C=C/C=C/[C@H](O[C@@H]2O[C@H](C)[C@@H](O)[C@H](N)[C@@H]2O)C[C@@H]2O[C@](O)(C[C@@H](O)C[C@@H](O)[C@H](O)CC[C@@H](O)C[C@@H](O)CC(=O)O[C@H]1C)C[C@H](O)[C@H]2C(=O)O [Amphotericin B, amphotericin B, reference compound]	–	0.5 (≈ 0.541 µM)	0.5 (≈ 0.541 µM)	0.5 (≈ 0.541 µM)	0.5 (≈ 0.541 µM)	0.5 (≈ 0.541 µM)	–	–	MIC (C. albicans ATCC18804; [10]): 1 µg/mL (≈ 1.08 µM); MIC (C. albicans ATCC18804; [11]): 1 µg/mL (≈ 1.08 µM); MIC (C. albicans ATCC11006; [10]): 0.5 µg/mL (≈ 0.541 µM); MIC (C. albicans ATCC11006; [11]): 0.5 µg/mL (≈ 0.541 µM); MIC (C. albicans ATCC10259; [10]): 1 µg/mL (≈ 1.08 µM); MIC (C. albicans ATCC10259; [11]): 0.5 µg/mL (≈ 0.541 µM)
COc1ccc(C(=O)O[C@H]2C=COC=C3C=C4C(=O)N(C)C(=O)C(=O)N4[C@@H]32)cc1Oc1cc(C=O)ccc1O [Dethiosecoemestrin (2), dethiosecoemestrin]	> 241	–	–	> 128	> 128	–	no inhibitory activity	–	–
COc1ccc2cc1Oc1cc(ccc1O)C(O)C13SSC4(C(=O)N1C)C(O)C1=COC=CC(OC2=O)C1N4C3=O (stereo not drawn) [Emestrin (3), emestrin]	> 214	–	–	–	> 128	–	not inhibitors of ICL	> 128	inhibitory activity toward ICL (in words) ([1]; listed as emestrin (3)): no inhibitory activity
COc1ccc2cc1Oc1cc(ccc1O)C(O)C13SSSC4(C(=O)N1C)C(O)C1=COC=CC(OC2=O)C1N4C3=O (stereo not drawn) [Emestrin B (4), emestrin B]	> 203	–	–	–	> 128	–	no inhibitory activity; also recorded: not inhibitors of ICL	> 128	–
COc1ccc(C(=O)O[C@H]2C=COC=C3[C@@H](O)[C@]45SSSS[C@H](C(=O)N4[C@@H]32)N(C)C5=O)cc1Oc1cc(C=O)ccc1O [Secoemestrin C (1), secoemestrin C]	4.77 ± 0.08	> 128	64 (≈ 96.6 µM)	> 128	> 128	64 (≈ 96.6 µM)	–	–	MIC (C. albicans SC5314; YNB with 2% glucose, 72 h): >128 µg/mL; intensity of the PCR band corresponding to the ICL product (ICL mRNA) [2]: decreased; MIC [3]: 32 to 64 µg/mL (≈ 48.3 to 96.6 µM); reversibility of binding to the enzyme ([1]; enzyme activity not recovered by dialysis within 1 h): irreversible; ICL inhibition mechanism ([1]; kinetic analysis, Lineweaver–Burk plot): uncompetitive inhibitor; MIC (C. albicans ATCC18804; YNB with 2% glucose): > 128 µg/mL; MIC (C. albicans ATCC18804; YNB with 2% potassium acetate): 64 µg/mL (≈ 96.6 µM); MIC (C. albicans ATCC11006; YNB with 2% glucose): > 128 µg/mL; MIC (C. albicans ATCC11006; YNB with 2% potassium acetate): 64 µg/mL (≈ 96.6 µM); MIC (C. albicans ATCC10259; YNB with 2% glucose): > 128 µg/mL; MIC (C. albicans ATCC10259; YNB with 2% potassium acetate): 32 µg/mL (≈ 48.3 µM); growth phenotype ([4]; 2% glucose plus 64 μg/mL compound, all strains): normal phenotypes; growth phenotype ([4]; 2% potassium acetate plus 64 μg/mL compound): failed to grow; also recorded: no growth
